Data reported in patent US20050159362A1, “Mediators of reverse cholesterol transport for the treatment of hypercholesterolemia” (priority 2003, published 2005).
“Also recorded” adds a separate entry of the source. Square brackets hold non-standard residues; d marks the D form. Ends that are not written are not given here. Bip = N[C@@H](Cc1ccc(-c2ccccc2)cc1)C(=O)O

Legend:
PLTP = molecular target: T1, PLTP (Mus musculus, UniProt P55065); assay: Effect of peptides on PLTP activity; type: biochemical; conditions: mouse plasma incubated with 0.4, 2, 5 and 10 ug peptide at RT for 30 min
T1 construct: Mouse plasma (source of enzyme), obtained from Chow fed mice and from mice fed with high fat cholate containing diet; from tissue; host or cells: serum/plasma of C57BL/6J male mice (chow-fed or high fat cholate diet for 4 days)
T1 sequence (P55065 18-493): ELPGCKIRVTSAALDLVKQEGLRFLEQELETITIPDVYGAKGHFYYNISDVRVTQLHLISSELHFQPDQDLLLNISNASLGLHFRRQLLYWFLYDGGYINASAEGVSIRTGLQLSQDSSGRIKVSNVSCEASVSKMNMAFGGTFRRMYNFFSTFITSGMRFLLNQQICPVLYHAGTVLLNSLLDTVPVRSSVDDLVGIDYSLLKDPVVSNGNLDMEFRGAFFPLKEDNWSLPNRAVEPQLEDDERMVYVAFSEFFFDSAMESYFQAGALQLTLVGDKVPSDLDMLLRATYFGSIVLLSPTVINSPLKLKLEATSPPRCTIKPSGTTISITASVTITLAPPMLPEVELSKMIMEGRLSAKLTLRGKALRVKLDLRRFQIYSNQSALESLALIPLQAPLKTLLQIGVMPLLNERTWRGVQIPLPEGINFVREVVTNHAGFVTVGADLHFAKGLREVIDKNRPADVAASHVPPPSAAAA
Experimental: Effect of peptides on PLTP activity—PLTP activity was measured using a fluorescent kit (Cardiovascular Targets, Inc., P7700). PLTP source was serum obtained from C57BL/6J male 2 months old mice, which were Chow-fed or maintained on high fat cholate containing diet for four days. 1× Mouse serum was preincubated with PBS or 0.4, 2, 5, and 10 μg of peptides at RT for 30 minutes. Following preincubation, the mixture was diluted 10 times, and 10 μl ([…] nest serum) was immediately mixed into reaction wells of pre-chilled 96-well plate, containing assay system (Cardiovascular Targets, Inc., P7700). The microplates were read at 37° C. in SpectraMax 190 (Molecular Devices), for 30 minutes.
Mouse plasma (source of enzyme), obtained from Chow fed mice and from mice fed with high fat cholate containing diet for 4 days, was incubated with PBS or the peptide of SEQ ID Nos: 34, 86, 91 and 96 (0.4, 2, 5, and 10 ug) at RT for 30 min. Reaction was started by addition of 0.3 μl of plasma/PBS or plasma/SEQ ID NO mixture to 100 μl of assay solution containing fluorescent substrate. PLTP activity was monitored on Spectrofluorometer for 20 min at 37° C. Each bar represents the Mean±SEM obtained from 3 independent experiments.

[1] = test system: C57BL/6J mice switched on HFC diet; assay: Long term effect of peptides on lipoprotein metabolism (7 days pumps, 160 hrs); type: in vivo, mouse; conditions: 160 hrs infusion, pumps 1 μl/hr
Experimental: (§1) Effect of time-released peptides on plasma lipoprotein profile—To determine relatively long-term effect of SEQ ID NO: 1 and its derivatives on plasma lipoprotein profile, the Alzet Mini-Osmotic pumps (220 ul), containing various peptides or PBS, were surgically inserted in canulated Chow fed C57BL/6J mice. The pumps with flow rate equal to 8 μl/hr were used for 20 hrs continuous infusion of peptides. The pumps with flow rate equal to 1 μl/hr were used for 160 hrs continuous infusions of peptides. At the end point (20 or 160 hrs after pumps insertion) mice were sacrificed, and blood was drawn by retroorbital puncture and subjected to low speed centrifugation at 4° C. to obtain the plasma. Bile was immediately removed from gall bladders using insulin syringes, and stored on ice until use.
To determine HDL cholesterol, low density lipoproteins were precipitated from plasma using a modified Burstein-Samaille method according to manufacturer's instructions (Boehringer Mannheim 543004), modifying only the ratio of reagent:water from 4:1 to 4:2. Gall bladder derived bile was diluted twice with deionized water, and cholesterol was determined using. Infinity reagents. 3α-Hydroxybile acids were quantified uiising a colorimetric-enzymatic method (Sigma 450).
To monitor cholesterol distribution among the different lipoprotein classes, plasma samples were combined within each group (usually 4-6 mice per group), and subjected to FPLC size-exclusion chromatography on a Superose 6 (HR 10/30 column, Amersham-Pharmacia) using an isocratic 10 mM Tris/150 mM NaCl/1 mM EDTA buffer system at a flow rate of 0.15 ml/min. […] Total and free cholesterol in plasma fractions was determined by using the fluorescent method of W. Gamble, et al. (Gamble et al., 1978, Journal Lipid Res., 16: 1068-1070). 96-well plates were read on Dual-Scanning Microplate Spectrofluorometer Gemini XS (Molecular Devices). The areas under the lipoprotein peaks were quantified by using Unicorn software (Version 3.21.02). The amount of esterified cholesterol was assessed by subtraction of free cholesterol from total cholesterol. […]

[2] = test system: C57BL/6J mice switched on HFC diet; assay: Effect of time-released peptides on plasma lipoprotein profile (20 hrs pumps); type: in vivo, mouse; conditions: for plasma HDL cholesterol levels / plasma levels of HDL phospholipids / plasma levels of low density lipoproteins: 20 hrs continuous infusion, pumps 8 ul/hr; for activity upon infusion into mice for 20 hrs: 20 hrs infusion, FIG. 16
Experimental: as §1
(§2) To monitor cholesterol distribution among the different lipoprotein classes, plasma samples were combined within each group (usually 4-6 mice per group), and subjected to FPLC size-exclusion chromatography on a Superose 6 (HR 10/30 column, Amersham-Pharmacia) using an isocratic 10 mM Tris/150 mM NaCl/1 mM EDTA buffer system at a flow rate of 0.15 ml/min. Fractions (0.15 ml) were collected into 96-well plates containing 0.055 ml of 1:1 mixture of 0.5% Triton X-100 and 20 mM Sodium Cholate. Total and free cholesterol in plasma fractions was determined by using the fluorescent method of W. Gamble, et al. (Gamble et al., 1978, Journal Lipid Res., 16: 1068-1070). 96-well plates were read on Dual-Scanning Microplate Spectrofluorometer Gemini XS (Molecular Devices). The areas under the lipoprotein peaks were quantified by using Unicorn software (Version 3.21.02). The amount of esterified cholesterol was assessed by subtraction of free cholesterol from total cholesterol.
To monitor the distribution of phospholipid among the lipoprotein classes, plasma samples were combined within each group (usually 4-6 mice per group), and subjected to agarose gel electrophoresis, which was carried out using the Paragon system (Beckman Coulter) according to manufacturer's instructions, with following staining with Paragon Lipo Stain (Beckman Coulter 655910). Once dried, the gels were scanned on Personal Densitometer SI (Molecular Dynamics) and bands were quantified using ImageQuant™ software (Verssion 5.2).
Impact of SEQ ID NO: 1 on lipoprotein metabolism (20 hrs pumps)—To determine relatively long-term effect of SEQ ID NO: 1 on plasma lipoprotein profile, the Alzet Mini-Osmotic pumps, containing SEQ ID NO: 1 or PBS, were surgically inserted in canculated Chow fed C57BL/6J mice. The pumps flow rate was equal to 8 ul per hr, which provided the delivery amount of SEQ ID NO: 1 per hr as indicated for FIG. 9. Mice were switched on HFC diet immediately after surgery. 20 hrs later plasma samples were obtained, combined within each group (4 to 6 mice), and subjected to FPLC analysis and agarose gel electrophoresis for assessment of cholesterol and phospholipid distribution among the lipoprotein classes. […] The LDL lowering effect was attenuated with increase of SEQ ID NO: 1 concentration. This phenomenon can be explained by self-competition between free and LDL-bound form of SEQ ID NO: 1 for the liver lipoprotein binding sites. In contrast, HDL cholesterol levels were positively correlated with SEQ ID NO: 1 concentration.
Impact of SEQ ID NO: 1 structural derivatives (3 to 13 amino acid residues) on lipoprotein metabolism (20 hrs pumps)—To determine relatively long-term effect on plasma lipoprotein profile, the Alzet Mini-osmotic pumps, containing SEQ ID NO: 1 derivatives or PBS, were surgically inserted in canulated Chow fed C57BL/6J mice. The pumps flow rate was equal to 8 ul per hr, which provided the deliveries of 30-40 μg of peptides per hr. Mice were switched on HFC diet immediately after surgery. […]

[3] = test system: LDLR−/− mice and A-I−/− mice; assay: Plasma clearance and tissue distribution of SEQ ID NO: 1-125I-LDL complexes; type: in vivo, mouse
Experimental: Plasma clearance and tissue distribution of SEQ ID NO: 1-LDL complexes—^125I-LDL (0.2 nmol) was incubated at 37° C. in PBS alone, or with 4 nmol of SEQ ID NO: 1. After 2 h, the mixture was dialyzed against PBS containing […] BHT. ^125I-LDL alone or SEQ ID NO: 1/^125I-LDL complex were injected intravenously into the tail vein of nonfasted mice under metofane anesthesia. Mice were bled at the certain time points after the injection by retroorbital bleeding into heparinized tubes. The blood was subjected to low speed centrifugation (1800 g, 4° C.) and the 10% TCA precipitable radioactivity of the plasma was measured. […] An incision was made in the […] vena cava to clear the perfusate. Within 15 min, the liver, kidneys, spleen, and heart were removed, cleaned, weighed, and counted for ^125I radioactivity. Entire organs were counted with exception of liver, which was counted in pieces. Radioactivity detected per organ or per 1 g of wet tissue was expressed as a percent of the initial total injected radioactivity that was TCA precipitable.
To determine if SEQ ID NO: 1 can associate with human LDL, we attempted to form the complex of ^125I-SEQ ID NO: 1 with isolated human LDL. […] To determine if SEQ ID NQ: 1 influences lipoprotein transport to the liver, we injected the ^125-LDL alone or in complex with SEQ ID NO: 1 into LDLR−/− mice (no LDL-receptor) and A-I−/− mice, which have a functional hepatic LDL-receptor. […] To assess the contribution of LDL-receptors alone, the binding of [^125I-LDL] and [125I-LDL-SEQ ID NO: 1] to the liver of LDLR−/− mice was subtracted from their respective binding to the liver of A-I−/− mice, and data were normalized per gram of wet tissue. […] Influence of SEQ ID NO: 1 on ^125I-LDL binding to kidney, spleen, lung, heart, testis, adrenal, and prostate is shown in FIG. 8. It is noteworthy that no increase in 125I-LDL-SEQ ID NO: 1 complex binding to the heart was observed.

[4] = test system: C57BL/6J mice fed a cholate-containing high fat diet (HFC); assay: Effect of single bolus injections of peptides on plasma lipoprotein profile; type: in vivo, mouse
Experimental: Effect of single bolus injections of peptides on plasma lipoprotein profile—To monitor effect of peptides on plasma cholesterol levels and its distribution among the different lipoprotein classes, the nonradioiodinated free peptides (100 μg in 100 μl of PBS) were injected intravenously into the tail vein of nonfasted C57BL/6J wild type mice, which have been placed on high fat cholate-containing diet four days prior to experiment. To control for the effect of external- and/or internal nonspecific factors (stress of handling, anesthetic, blood drawing) on plasma lipoprotein profile, a similar group of mice was injected with only PBS. Different groups of mice were sacrificed before and at various times after injections and blood was drawn by retroorbital puncture and subjected to low speed centrifugation at 4° C. to obtain the plasma. Plasma samples were obtained, combined within each group (4 mice), and subjected to gel filtration chromatography on a Superose 6 (HR 10/30 column, FPLC) to monitor cholesterol lipoproteins distribution and agarose gel electrophoresis (Paragon Systems) to monitor phospholipid lipoproteins distribution.
as §2
Mice were divided into two groups—control and experimental. Each group contained 4 mice.
Effect of “frame-shift” derived peptides on lipoprotein metabolism (Single bolus injections)—We performed the functional frame-shift of the entire region of mouse apolipoprotein A1 where SEQ ID NO: 1 derived from (helix 6, Pro166-Pro188, precursor protein). Frame-shift was done in both directions (form N-to C- and from C- to N-Terminus). […] Mice were divided into two groups—control and experimental. Each group contained 4 mice. […] The data are expressed as percent of change of total cholesterol (TC) content of VLDL, IDL/LDL, and HDL classes in experimental mice relative to control (PBS injected) mice.
Effect of chemically modified derivatives of SEQ ID NO: 1 and peptides derived from other mouse apoA1 regions on mouse plasma lipoprotein profile (Single bolus injections)—To increase SEQ ID NO: 1 hydrophobicity, Phenyl Acetyl or Pivalic Acid were attached to N-Terminal Tyr residue of SEQ ID NO: 1, or Tyr residue was removed from N-terminus. […] Mice were divided into two groups—control and experimental. Each group contained 4 mice. […] The data are expressed as percent of change of total cholesterol (TC) content of VLDL, IDL/LDL, and HDL classes in experimental mice relative to control (PBS injected) mice.

Row | Substance | effect on PLTP activity (PLTP) | amount of phospholipid in the HDL zone [1] | plasma HDL cholesterol levels [2] | plasma levels of HDL phospholipids [2] | plasma levels of low density lipoproteins [2] | other results
1 | EFR [SEQ ID NO: 34] | activation of PLTP | increase |  |  |  | 
2 | YEFRDRMRTH [SEQ ID NO: 1] |  |  | elevated | elevated | dramatic decrease | in vivo half-life: 2 to 3 h; plasma clearance of 125I-LDL-SEQ ID NO: 1 complex ([3]; ApoA1−/− mice, compared to 125I-LDL alone): enhanced plasma clearance; liver-bound 125I-LDL after complexing with SEQ ID NO: 1 ([3]; both mouse genotypes (LDLR−/− and A-I−/−), compared to 125I-LDL alone): significant increase; complex binding to the LDL-receptors (liver binding in A-I−/− minus LDLR−/− mice) ([3]; compared to 125I-LDL alone, per gram of wet tissue): substantial increase; 125I-LDL-SEQ ID NO: 1 complex binding to the heart ([3]; mouse, in vivo): no increase; duration of effect after single bolus injection [4]: up to 180 min; impact on plasma HDL-C levels ([4]; single bolus i.v. 100 μg): slight but significant decrease; impact on VLDL level ([4]; single bolus i.v. 100 μg, entire time course): no significant impact; impact on plasma IDL/LDL, low density lipoproteins ([4]; single bolus i.v. 100 μg, 90, 120 and 180 min after injection): Significant lowering; also recorded: strongest impact
3 | E-BIP-R (Glu-[Bip]-Arg) [SEQ ID NO: 91] | activation of PLTP | increase |  |  |  | 
4 | EEFRDR [SEQ ID NO: 87] |  |  | decrease | decrease | increase | 
5 | THVDSLRTQLAP (Ac-THVDSLRTQLAP-NH2) [SEQ ID NO: 7] |  |  |  |  |  | impact on plasma HDL-C levels ([4]; single bolus i.v. 100 μg): marked HDL-C elevating properties

Further lines, with some results ahead:

Row | effect on PLTP activity (PLTP) | Substance | amount of phospholipid in the HDL zone [1] | plasma HDL cholesterol levels [2] | plasma levels of HDL phospholipids [2] | plasma levels of low density lipoproteins [2] | other results
6 | activation of PLTP | efr ([dE]-[dF]-[dR]) [SEQ ID NO: 96] |  |  |  |  | 
7 | did not have any significant effect | dRMRTH ([dD]RMRTH) [SEQ ID NO: 36] |  |  |  |  | activity upon infusion into mice for 20 hrs [2]: did not show significant activity
8 | activation of PLTP | erf ([dE]-[dR]-[dF]) [SEQ ID NO: 86] | increase |  |  |  | 
9 | did not have any significant effect | rDRMRTh ([dR]DRMRT[dH]) [SEQ ID NO: 35] |  | decrease | decrease | increase | activity upon infusion into mice for 20 hrs [2]: did not show significant activity
